Assay results published in the supplement of paper PMC4862054.

Tests used:
Experiment in all cases: normalised response (% of control), CellTox Green; higher = less cell death (100 = DMSO, 0 = benzethonium chloride kill control)
Conditions in all cases: incubation time: 72 h
BT-474 = system: BT-474
Summary of the method: (§1)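 Breast cancer cell lines (20 µl suspension) were seeded into 384-well plates holding compound at 5 concentrations in 10-fold steps over a compound-specific 10,000-fold range, then incubated 72 h. CellTox Green fluorescence (485/520 nm) was read first, then CellTiter-Glo luminescence after 10 min at room temperature. Each plate was normalised to 0.1 % DMSO (100) and a positive kill control (0). Each value is the normalised signal at a single concentration of the series.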

BT-549 = system: BT-549
Summary of the method: as §1

CAL-120 = system: CAL-120
Summary of the method: as §1

CAL-148 = system: CAL-148
Summary of the method: as §1

CAL-85-1 = system: CAL-85-1
Summary of the method: as §1

DU-4475 = system: DU-4475
Summary of the method: as §1

HCC1143 = system: HCC1143
Summary of the method: as §1

HCC1599 = system: HCC1599
Summary of the method: as §1

HDQ-P1 = system: HDQ-P1
Summary of the method: as §1

Hs578T = system: Hs578T
Summary of the method: as §1

MCF-10A = system: MCF-10A
Summary of the method: as §1

MDA-MB-436 = system: MDA-MB-436
Summary of the method: as §1

MDA-MB-453 = system: MDA-MB-453
Summary of the method: as §1

MDA-MB-468 = system: MDA-MB-468
Summary of the method: as §1

SMILES	normalised response (BT-474)	normalised response (BT-549)	normalised response (CAL-120)	normalised response (CAL-148)	normalised response (CAL-85-1)	normalised response (DU-4475)	normalised response (HCC1143)	normalised response (HCC1599)	normalised response (HDQ-P1)	normalised response (Hs578T)	normalised response (MCF-10A)	normalised response (MDA-MB-436)	normalised response (MDA-MB-453)	normalised response (MDA-MB-468)
N#Cc1ccc(COC[C@H]2O[C@@H](n3c(NCc4ccc(Cl)c(Cl)c4)nc4c(N)ncnc43)[C@H](O)[C@@H]2O)cc1 (1000 nM)	100%	123%	96.4%	107%	97.6%	103%	115%	102%	106%	103%	92.3%	96.5%	112%	143%
N#Cc1ccc(COC[C@H]2O[C@@H](n3c(NCc4ccc(Cl)c(Cl)c4)nc4c(N)ncnc43)[C@H](O)[C@@H]2O)cc1 (10000 nM)	98.8%	111%	98.2%	95.2%	–	104%	79.2%	109%	110%	120%	103%	87.8%	102%	103%
COc1cc(OC2CCN(C)CC2)ccc1Nc1ncc2c(n1)n(C1CCCC1)c(=O)n2C [AZ 3146] (1000 nM)	101%	120%	100%	90.9%	103%	97.9%	87.6%	92.5%	99.6%	97.5%	99.3%	86%	109%	88.7%
COc1cc(OC2CCN(C)CC2)ccc1Nc1ncc2c(n1)n(C1CCCC1)c(=O)n2C [AZ 3146] (10000 nM)	70.2%	105%	94.6%	60.4%	82.7%	90.2%	86.7%	53.3%	86.1%	98.7%	71%	47.3%	105%	75.5%
CN(C)c1nc(N(C)C)nc(N(C)C)n1 [Altretamine] (1000 nM)	100%	107%	104%	101%	102%	103%	113%	90.7%	69.2%	98.1%	78%	80.3%	105%	140%
CN(C)c1nc(N(C)C)nc(N(C)C)n1 [Altretamine] (10000 nM)	102%	97.2%	102%	91%	87.6%	98.3%	109%	103%	94.3%	112%	102%	97.5%	105%	152%
O=C(/C=C/c1cccc(S(=O)(=O)Nc2ccccc2)c1)NO [Belinostat] (1000 nM)	65.2%	129%	70.4%	66.4%	51.1%	75.8%	100%	86.1%	103%	77.3%	70%	79.3%	99.5%	97.7%
O=C(/C=C/c1cccc(S(=O)(=O)Nc2ccccc2)c1)NO [Belinostat] (10000 nM)	21.2%	103%	-14%	26.6%	-19.3%	76%	79.7%	93.8%	76.1%	37.3%	54.6%	112%	88.7%	43.3%
O=P1(N(CCCl)CCCl)NCCCO1 (configuration not stated) [Cyclophosphamide] (4000 nM)	100%	98.7%	101%	104%	100%	102%	–	105%	112%	62.1%	86.7%	97.3%	105%	100%
O=P1(N(CCCl)CCCl)NCCCO1 (configuration not stated) [Cyclophosphamide] (40000 nM)	99.1%	100%	98.7%	102%	92.4%	100%	71.3%	107%	107%	50.5%	76.1%	105%	106%	–
C=C1C[C@@H]2[C@H](CC[C@]3(C)C(=O)CC[C@@H]23)[C@@]2(C)C=CC(=O)C=C12 [Exemestane] (1000 nM)	97.2%	113%	105%	96.9%	99%	109%	108%	108%	116%	–	112%	95.1%	112%	149%
C=C1C[C@@H]2[C@H](CC[C@]3(C)C(=O)CC[C@@H]23)[C@@]2(C)C=CC(=O)C=C12 [Exemestane] (10000 nM)	105%	81.2%	103%	106%	71.2%	106%	112%	112%	–	117%	111%	90%	106%	103%
COc1cc2ncnc(Nc3ccc(F)c(Cl)c3)c2cc1OCCCN1CCOCC1 [Gefitinib] (1000 nM)	91%	123%	100%	89.8%	79.5%	101%	83.2%	97.8%	84.8%	95.9%	99.2%	91.5%	98.3%	125%
COc1cc2ncnc(Nc3ccc(F)c(Cl)c3)c2cc1OCCCN1CCOCC1 [Gefitinib] (10000 nM)	17.4%	114%	95.4%	48.3%	45.8%	96.9%	113%	96.9%	94.9%	102%	82.9%	98.4%	79%	133%
O=C(Nc1ccncc1)C(=O)c1cn(Cc2ccc(Cl)cc2)c2ccccc12 [Indibulin] (1000 nM)	92.1%	117%	89.4%	96.3%	48.8%	101%	93.6%	104%	107%	94.6%	87.2%	80.4%	106%	91.5%
O=C(Nc1ccncc1)C(=O)c1cn(Cc2ccc(Cl)cc2)c2ccccc12 [Indibulin] (10000 nM)	81.4%	95.4%	85.8%	65.3%	16.7%	106%	121%	105%	69.6%	76.3%	84%	93.6%	105%	63.6%
NC(=O)c1ccc(I)c([N+](=O)[O-])c1 [Iniparib] (1000 nM)	94.6%	121%	93.3%	82.5%	101%	95.2%	101%	89%	103%	56.3%	81.6%	93.9%	88.2%	125%
NC(=O)c1ccc(I)c([N+](=O)[O-])c1 [Iniparib] (10000 nM)	89.9%	113%	88.8%	101%	142%	94.3%	–	100%	–	–	77.3%	77.5%	99.6%	146%
CCc1c2c(nc3ccc(OC(=O)N4CCC(N5CCCCC5)CC4)cc13)-c1cc3c(c(=O)n1C2)COC(=O)[C@]3(O)CC [Irinotecan] (1000 nM)	103%	121%	93.5%	29.8%	93.1%	99.1%	96.6%	99.1%	93.7%	81.9%	–	44.5%	107%	141%
CCc1c2c(nc3ccc(OC(=O)N4CCC(N5CCCCC5)CC4)cc13)-c1cc3c(c(=O)n1C2)COC(=O)[C@]3(O)CC [Irinotecan] (10000 nM)	102%	107%	74.3%	44.4%	64.6%	84.8%	95.2%	87%	74.4%	104%	100%	97.1%	109%	119%
Oc1ccc2c(c1)CC[C@H](c1ccccc1)[C@@H]2c1ccc(OCCN2CCCC2)cc1 [Lasofoxifene] (100 nM)	103%	113%	93.6%	62.9%	82.2%	105%	–	95.2%	66%	84.9%	111%	104%	88%	111%
Oc1ccc2c(c1)CC[C@H](c1ccccc1)[C@@H]2c1ccc(OCCN2CCCC2)cc1 [Lasofoxifene] (1000 nM)	99.8%	118%	99.7%	103%	69.3%	102%	112%	111%	86.1%	68.7%	67.1%	109%	104%	178%
Cc1ccc(NC(=O)c2ccc(CN3CCN(C)CC3)cc2)cc1Nc1nc(-c2cccnc2)cs1 [Masitinib] (1000 nM)	102%	110%	99.2%	97.3%	98.9%	100%	99.5%	101%	89.1%	97.8%	103%	68.7%	102%	177%
Cc1ccc(NC(=O)c2ccc(CN3CCN(C)CC3)cc2)cc1Nc1nc(-c2cccnc2)cs1 [Masitinib] (10000 nM)	53.3%	109%	78.5%	101%	76.8%	100%	96.5%	67.6%	106%	70.7%	90.8%	31.8%	87.1%	37%
O=C(Nc1cccnc1)N1CCC(Cc2cccc(Oc3ccc(C(F)(F)F)cn3)c2)CC1 [PF-3845] (1000 nM)	102%	107%	106%	107%	106%	108%	97.7%	108%	70.8%	115%	115%	108%	108%	132%
CNC(=O)c1cc(Oc2ccc(NC(=O)Nc3ccc(Cl)c(C(F)(F)F)c3)c(F)c2)ccn1 [Regorafenib] (1000 nM)	101%	116%	102%	103%	103%	102%	–	103%	97.6%	110%	101%	108%	107%	143%
c1ccc2c(CCNc3ccc(Nc4ccncc4)cc3)c[nH]c2c1 [Serdemetan] (1000 nM)	99.5%	124%	97.1%	73.4%	102%	94%	–	89.1%	99.7%	92.3%	96.9%	81.8%	102%	12.4%
CN(C)CCOc1ccc(/C(=C(/CCCl)c2ccccc2)c2ccccc2)cc1 [Toremifene] (1000 nM)	100%	99.3%	99%	89.1%	106%	99.9%	118%	95.5%	–	55.3%	108%	70.4%	106%	101%
CN(C)CCOc1ccc(/C(=C(/CCCl)c2ccccc2)c2ccccc2)cc1 [Toremifene] (10000 nM)	22.9%	82%	91.8%	59.6%	79.9%	94.6%	–	80.3%	103%	103%	69.2%	91.7%	86.4%	9.03%
